Test results published in patent publication US20240018163A1, “NEW THIAZOLOPYRIMIDINONE DERIVATIVES” (Hoffmann-La Roche Inc., priority 2021, published 2024).
pEC50: −log10 of the molar value.

The compounds below were run on mutant HTT protein (mHTT) (assay: Homogeneous Time Resolved Fluorescence (HTRF) assay for HTT lowering). Conditions: reduction of mHTT in Huntington patient human cells (GENEAe020-A cell line), 48 hours incubation, mean from three replicates.
Format: cell-based
Method: Homogeneous Time Resolved Fluorescence for HTT lowering
The HTRF assay was adapted from Weiss et al. (Analytical Biochemistry Volume 395, Issue 1, 1 Dec. 2009, Pages 8-15 and Analytical Biochemistry Volume 410, 2011, Pages 304-306) to cells from GENEAe020-A cell line (https://hpscreg.eu/cell-line/GENEAe020-A).
Compounds were tested for the effect of mutant HTT levels in Huntington patient human cells (GENEAe020-A cell line) using Homogeneous Time Resolved Fluorescence (HTRF) directed towards mutant HTT protein (mHTT). The GENEAe020-A cell line was derived by Genea Biocells from human blastocysts of HD donors. After assessing viability, cells were plated into 384 well collagen coated plates in growth media. Once cells adhered, media was removed and test compounds dissolved in DMSO were diluted with buffer solution and added to the adherent cells. Controls included experiments with no cells, DMSO with no compound, and Hsp90 inhibitor control. Cells were incubated with compounds and controls for 48 hours. Then, the cells were lysed and transferred to an assay plate containing HTRF labeled monoclonal antibodies developed by Paul Patterson (Ko et al., Brain Research Bulletin, Volume 56, Numbers 3 and 4, 2001, Pages 319-329) which recognize specific areas of the HTT protein. The terbium labeled “donor” antibody (2B7) binds to the N-terminus of the HTT protein and the Alexa488 labeled “acceptor” antibody (MW1) is specific for the polyglutamine region of the protein. Binding of the acceptor labeled antibody is more efficient for the extended polyglutamine repeats of mutant HTT protein which translates into a signal boost which enables the specific measurement of mutant HTT protein level. The HTRF donor and acceptor detection reagents were incubated with the cell lysate and the ratio between the signals of the two fluorophores is indicative of the relative quantities of mHTT.

SMILES	pEC50
Cc1cn2nc(-c3cc(=O)n4cc(N5CCNCC5)sc4n3)cc(OC(F)F)c2n1 [Example 27, 7-[8-(difluoromethoxy)-2-methyl-imidazo[1,2-b]pyridazin-6-yl]-2-piperazin-1-yl-thiazolo[3,2-a]pyrimidin-5-one]	7.17
Cc1nc2c(C(F)(F)F)cc(-c3cc(=O)n4cc(N5CCNCC5)sc4n3)nc2o1 [Example 28, 7-[2-methyl-7-(trifluoromethyl)oxazolo[5,4-b]pyridin-5-yl]-2-piperazin-1-yl-thiazolo[3,2-a]pyrimidin-5-one]	6.16
COc1cc(-c2cc(=O)n3cc(C4CCNCC4)sc3n2)nn2cc(C)nc12 [Example 29, 7-(8-methoxy-2-methyl-imidazo[1,2-b]pyridazin-6-yl)-2-(4-piperidyl)thiazolo[3,2-a]pyrimidin-5-one]	7.46
Cc1nc2c(C)cc(-c3cc(=O)n4cc(C5CCNCC5)sc4n3)nc2o1 [Example 30, 7-(2,7-dimethyloxazolo[5,4-b]pyridin-5-yl)-2-(4-piperidyl)thiazolo[3,2-a]pyrimidin-5-one]	7.40
Cc1cc(-c2cc(=O)n3cc(C4CCNCC4)sc3n2)nn2cc(Cl)nc12 [Example 31, 7-(2-chloro-8-methyl-imidazo[1,2-b]pyridazin-6-yl)-2-(4-piperidyl)thiazolo[3,2-a]pyrimidin-5-one]	7.15
Cc1cn2nc(-c3cc(=O)n4cc([C@@H]5CCNC[C@@H]5F)sc4n3)cc(C)c2n1 [Example 32, 7-(2,8-dimethylimidazo[1,2-b]pyridazin-6-yl)-2-[(3R,4R)-3-fluoro-4-piperidyl]thiazolo[3,2-a]pyrimidin-5-one]	7.48
Cc1cn2nc(-c3cc(=O)n4cc([C@H]5CCNC[C@H]5F)sc4n3)cc(C)c2n1 [Example 33, 7-(2,8-dimethylimidazo[1,2-b]pyridazin-6-yl)-2-[(3S,4S)-3-fluoro-4-piperidyl]thiazolo[3,2-a]pyrimidin-5-one]	7.07
COc1cc(-c2cc(=O)n3cc([C@@H]4CCNC[C@@H]4F)sc3n2)nn2cc(C)nc12 [Example 34, 7-(8-methoxy-2-methyl-imidazo[1,2-b]pyridazin-6-yl)-2-[(3R,4R)-3-fluoro-4-piperidyl]thiazolo[3,2-a]pyrimidin-5-one]	7.66
COc1cc(-c2cc(=O)n3cc([C@H]4CCNC[C@H]4F)sc3n2)nn2cc(C)nc12 [Example 35, 7-(8-methoxy-2-methyl-imidazo[1,2-b]pyridazin-6-yl)-2-[(3S,4S)-3-fluoro-4-piperidyl]thiazolo[3,2-a]pyrimidin-5-one]	7.21
Cc1cn2nc(-c3cc(=O)n4cc([C@H]5CCNC6(CC6)C5)sc4n3)cc(C)c2n1 [Example 36, 7-(2,8-dimethylimidazo[1,2-b]pyridazin-6-yl)-2-[(7S)-4-azaspiro[2.5]octan-7-yl]thiazolo[3,2-a]pyrimidin-5-one]	7.26
Cc1cn2nc(-c3cc(=O)n4cc([C@@H]5CCNC6(CC6)C5)sc4n3)cc(C)c2n1 [Example 37, 7-(2,8-dimethylimidazo[1,2-b]pyridazin-6-yl)-2-[(7R)-4-azaspiro[2.5]octan-7-yl]thiazolo[3,2-a]pyrimidin-5-one]	6.95
Cc1cn2nc(-c3cc(=O)n4cc([C@@H]5CCNC[C@H]5F)sc4n3)cc(C)c2n1 [Example 38, 7-(2,8-dimethylimidazo[1,2-b]pyridazin-6-yl)-2-[(3S,4R)-3-fluoro-4-piperidyl]thiazolo[3,2-a]pyrimidin-5-one]	6.55
Cc1cn2nc(-c3cc(=O)n4cc([C@H]5CCNC[C@@H]5F)sc4n3)cc(C)c2n1 [Example 39, 7-(2,8-dimethylimidazo[1,2-b]pyridazin-6-yl)-2-[(3R,4S)-3-fluoro-4-piperidyl]thiazolo[3,2-a]pyrimidin-5-one]	7.28
COc1cc(-c2cc(=O)n3cc([C@H]4CCNC5(CC5)C4)sc3n2)nn2cc(C)nc12 [Example 40, 7-(8-methoxy-2-methyl-imidazo[1,2-b]pyridazin-6-yl)-2-[(7S)-4-azaspiro[2.5]octan-7-yl]thiazolo[3,2-a]pyrimidin-5-one]	7.08
